In patent publication US20110076339A1, “Colon Cleansing Method and Kit” (Kingston General Hospital, priority 2008, published 2011):

Experiment: Patient diary of bowel movements after laxative use
Format: in vivo, human
Text: In patient tolerance studies described herein, treatment groups received an osmotic purgative on the evening before colonoscopy in split doses. Comparisons were made between the results of these osmotic purgatives. Also, a comparison was made between patients treated with osmotic purgative alone, and patients treated initially with stimulant laxative followed by osmotic purgative. Table III provides a summary of data gathered from diaries that were kept by 100 patients as they progressed through a colon cleansing regimen. Each patient recorded the time of the first and last bowel movement following consumption of a laxative, as well as the total number of bowel movements associated with consumption of a particular laxative.

[1] = 10 mg taken 2 nights before colonoscopy (e.g. at suppertime)
[2] = 10 mg taken 3 nights before colonoscopy (e.g. at suppertime)

CC(=O)Oc1ccc(C(c2ccc(OC(C)=O)cc2)c2ccccn2)cc1 [Bisacodyl, bisacodyl]
Mean time to first BM ± standard deviation [1]: 8.6 ± 5.3 h | Mean time to last BM ± standard deviation [1]: 16.5 ± 5.3 h | Total number BM ± standard deviation [1]: 3.8 ± 2 | Mean time to first BM ± standard deviation [2]: 8.9 ± 5.1 h | Mean time to last BM ± standard deviation [2]: 16.5 ± 5.1 h | Total number BM ± standard deviation [2]: 3.4 ± 2
